The subject of this assay is human monocytes (THP-1 cell line). Kind of assay: multiplex functional cell-based HTS assay (5-plex): expression of co-stimulatory molecules and cytokines by THP-1 monocytes. Set-up: IL-8 / RANTES / TNFα: unit not given here. The following applies: THP-1 cells incubated overnight with 10^-5M test compound; for IL-8 / RANTES / TNFα: concentration in cell culture supernatant, Luminex, mean of two wells; for CD54 / CD80: flow cytometry, specific staining (MFI minus isotype control MFI). Here is the method: Test compounds/candidate agents were diluted in 100% DMSO at a concentration of 10^−2M and stored in 96 well “matrix” plates at −80° C. These compound stocks were employed as a pool of mother plates. Compounds to be assayed were diluted 100 times in sterile PBS using a liquid handling robot “Evolution P3” (PerkinElmer) to a concentration of 10^−4M, and stored at −20° C. until they were used for the assay. In total, 20,000 candidate agents were tested.
10^5 THP-1 cells were incubated overnight with 10^−5M of test compound (20 μl of 10^−4M compound stock solution was added to 180 μl of the cells suspension). Incubations were carried out in U bottom 96 well tissue culture plates. Each compound was tested in duplicate. Collection of the cell culture supernatants and cell surface receptor staining were carried out using the “Biomek 2000” liquid handling robot (Becton Coulter).
Expression of cell surface receptors was analyzed by flow cytometry using the following antibodies: PE-conjugated anti-human CD80 and APC conjugated anti-human CD54 (ICAM-1) and matching labeled isotype controls, all from BD Pharmingen. Cells in the first well of each duplicate were stained with isotype controls (IC). In the second well, cells were stained with CD80 and CD54 antibodies. Stained cells were analyzed on a flow cytometer (FACSArray cytometer (BD Pharmingen)). The mean fluorescence intensity (MFI) for IC and CD80/CD54 antibodies stained cells were determined using “FlowJo” software (Tree Star, Inc.). The IC MFIs were subtracted from CD80/CD54 MFIs and results were recorded as specific staining and used for the following data analysis.
The concentrations of IL-8, RANTES and TNFα in cell culture supernatants were determined for each well of the duplicates using the “Fluorokine MultiAnalyte Profiling” kits (R&D Systems). Samples were analyzed on the Luminex 100IS system and data analysis was performed using Luminex 2.3IS software (both from Luminex corporation). The mean value of two wells was recorded and used for the following data analysis.
To identify agents that stimulate the innate immune system, a multiplex functional cell-based assay was used. The assay used human monocytes (THP-1 cell line) as target cells and expression of co-stimulatory molecules (CD54 and CD80) and immune-activating cytokines (IL-8, RANTES and TNFα) as assay readouts. These molecules play major role in the innate immune response and are required for effective activation of the adaptive immune system.
(In general: Flow cytometry measures light scatter and fluorescence of single cells or particles in a stream.)

`CN[C@H]1CCc2cc(OC)c(OC)c(OC)c2-c2ccc(OC)c(=O)cc21` [Demecolcine] had an IL-8 of 2533.58, an RANTES of 740.62, a TNFα of 95.20 and a CD54 of 600.87. The compound further gave a CD80 of 4.91.

Turning to `CC[C@]1(O)C[C@H]2CN(CCc3c([nH]c4ccccc34)[C@@](C(=O)OC)(c3cc4c(cc3OC)N(C=O)[C@H]3[C@@](O)(C(=O)OC)[C@H](OC(C)=O)[C@]5(CC)C=CCN6CC[C@]43[C@@H]65)C2)C1` [Vincristine], the IL-8 was 8334.51, the RANTES is reported as 5232.60, the TNFα is listed as 88.30 and the CD54 came to 814.96. This compound also returned a CD80 of 3.90.

`CC[C@]1(O)C[C@@H]2CN(CCc3c([nH]c4ccccc34)[C@@](C(=O)OC)(c3cc4c(cc3OC)N(C)[C@H]3[C@@](O)(C(=O)OC)[C@H](OC(C)=O)[C@]5(CC)C=CCN6CC[C@]43[C@@H]65)C2)C1` [Vinblastine] showed an IL-8 of 6543.63, an RANTES of 4568.01, a TNFα of 78.47 and a CD54 of 665.18. This compound also came in with a CD80 of 3.89.

The compound bacterial lipopolisaccharide [LPS] showed an IL-8 of 13562.99, an RANTES of 3217.60, a TNFα of 866.78 and a CD54 of 3662.56. This compound also displayed a CD80 of 64.12.

`COc1cc2c(c(OC)c1OC)-c1ccc(OC)c(=O)cc1[C@@H](NC(C)=O)CC2` [Colchicine]: the IL-8 is 7499.42, the RANTES was determined as 4383.62, the TNFα was found to be 66.37 and the CD54 came out at 554.50. The same compound yielded a CD80 of 3.69.

The values above are taken from patent US20070059319A1, “Methods of screening for immuno-adjuvants and vaccines comprising anti-microtubule immuno-adjuvants” (Caliper Life Sciences, Inc., priority 2005, published 2007).
